# Source: US9918963B2, “Therapeutic agent for disease based on inhibitory effect of macrophage migration inhibitory factor” (TOYAMA CHEMICAL CO., LTD., priority 2013, dated 2018)
# Tested on: chronic constriction nerve injury model rat
# Test: Chronic constriction nerve injury model rat, mechanical allodynia by von Frey test
# Type: in vivo
# Method: This test was performed by referring to a method of Bennett et al. (Pain, 1988, vol. 33, pp. 87-107). Compound A was used as a test substance, and celecoxib, one of NSAIDs, was used as a reference substance. The compound A was administered at a dose of 30 mg/kg (Compound A group). The celecoxib was administered at a dose of 30 mg/kg (celecoxib group). To a control group, a 0.5% methyl cellulose aqueous solution used as a vehicle was administered. Under anesthetic with Somnopentyl (manufactured by Kyoritsu Seiyaku Corporation, about 52 mg/kg, intraperitoneal administration), nerve constriction operation was performed on the left sciatic nerves of Sprague-Dawley male rats (7 weeks old). Briefly, a left femoral region of each rat was dissected, the sciatic nerve was detached from tissues around, and the nerve was loosely constricted with a 4-0 silk suture (manufactured by Eticon Inc., surgical silk) for having narrow parts in four positions at intervals of about 1 mm. The muscular layer and the skin were respectively sutured, and the operation region was disinfected. The vehicle, the test substance or the reference substance was orally administered once a day continuously for 14 days from the 16th day after the operation. From the start of the administration, pain sense (mechanical allodynia) of the footpad of left hind paw was evaluated by von Frey test. […] The evaluation of the pain sense was expressed as an average of pain threshold values.
structure (smiles),measurement,setting,value
"CS(=O)(=O)Nc1cc2occ(NC=O)c(=O)c2cc1Oc1ccccc1 [Compound A, N-[7-[(methylsulfonyl)amino]-4-oxo-6-phenoxy-4H-1-benzopyran-3-yl]formamide]",Effect on the symptom of mechanical allodynia,"30 mg/kg orally once a day for 14 days, compared with control group",inhibited the symptom of the mechanical allodynia
same,"Average of pain thresholds, 30th day after operation","von Frey test, left hind paw, 30 mg/kg orally once a day for 14 days from the 16th day after operation",13.5 g
same,"Average of pain thresholds, 15th day after operation","von Frey test, left hind paw, day before start of administration, 30 mg/kg groups",2.4 g
